# Several values for one entry are separate records, joined by “and”; a condition that tells them apart may be missing. Equal values may be shown once.
# Experiments:
# [1] = Example 8: serum UREA at the end of the assay; format: in vivo, nude mice; conditions: DDP 5 mg/kg i.p. QW×4
# From the text: The assay animals, calculation of tumor volume (TV), end of assay, data recording, calculation formula of tumor growth inhibition rate TGI (%), and statistical analysis method were the same as those in Example 3; the preparation of the administration formulation of the compound of formula (I) was the same as that in Example 5. [table]
# [2] = Example 10: body weight of HT-29 tumor-bearing nude mice; format: in vivo; conditions: HT-29 model, DDP 5 mg/kg i.p. QW × 3, R01 18 mg/kg i.g. BID × 28
# Procedure: On D1 of the assay, the HT-29 cells in the logarithmic growth phase were collected, counted and resuspended in serum-free McCoy, and the cell concentration was adjusted to 4×10^7 cells/mL. The cells were pipetted with a pipette to disperse them evenly, and the cells were put into a 50-mL centrifuge tube, which was placed in an ice box. A 1-mL syringe was used to draw the cell suspension, which was injected subcutaneously into the axilla of the front right limb of a nude mouse. Each animal was inoculated with 100 μL (4×10^6 cells/mouse) to establish a HT-29 transplanted tumor model in nude mice. After the inoculation, the animal status and tumor growth were regularly observed. On D12, the tumor diameter was measured using an electronic vernier caliper. The data were input into an Excel spreadsheet to calculate the tumor volume. Tumor-bearing mice in good health and with similar tumor volumes (103 to 179 mm^3) were selected and divided into groups using randomized block method. After the start of the assay, the tumor diameter was measured regularly, the tumor volume was calculated, and the animal body weight was also weighed and recorded.
# [3] = test system: A549 cells; test: Colony formation assay, A549; format: cell-based, human; conditions: 50 μM and 150 μM vs 0 μM, about 2 weeks
# Procedure: (§1) (1) The cell status was observed under a microscope. Cells in the logarithmic growth phase were selected and digested to make a cell suspension. 20 μl of the cell suspension was taken with a pipette and added to the CountStar disposable cell counting plate for cell counting, and the counting results were recorded.
# (§2) (2) A 6-well culture plate was used for colony formation assay. Approximately 1,000 cells were inoculated into each well, and the complete culture medium was added to make up the volume to 2.5 ml per well. The cells were shaked in a figure-8 pattern to disperse the cells evenly. The next day, the compound of formula (I) at different concentrations (0 μM, 50 μM, and 150 μM) were added to the corresponding wells according to the assay plan, and incubated in an incubator at 37° C. with 5% CO2 for about 2 weeks. The culture was terminated when visible colonies appeared.
# (§3) (3) The culture plate was taken out, and the old culture medium was discarded. The cells were gently washed twice with PBS.
# (§4) (4) 500 μl of 4% paraformaldehyde fixative was added to each well to fix the cells at room temperature for 15 minutes, and then the fixative was discarded.
# (§5) (5) 500 μl of 0.1% crystal violet solution was added to each well, and cells were stained at room temperature for at least 15 minutes. The crystal violet was discarded, and the staining solution was slowly washed away with running water. […]
# [4] = test system: NCI-H460 cells; test: Colony formation assay, NCI-H460; format: cell-based, human; conditions: 50 μM and 150 μM vs 0 μM, about 2 weeks
# Procedure: as §1, §2, §3, §4, §5
# [5] = test system: cisplatin-induced acute kidney damage in mice; test: Example 11: serum creatinine (Cre) in cisplatin-induced acute kidney damage model; format: in vivo, C57BL/6J mice; conditions: for Serum creatinine (Cre) level after the assay, x (mean): group mean; for Serum creatinine (Cre) level after the assay, x (mean) / Serum creatinine (Cre) level after the assay: cisplatin model; for Serum creatinine (Cre) level after the assay: individual animals No. 1-7
# Procedure: 42 male C57BL/6J mice (age: 6 to 8 weeks, body weight 18-20 g, certificate number: 11400700238365) were purchased from Si Pei Fu (Beijing) Biotechnology Co., Ltd., and raised in an SPF-grade animal room of the Institute of Materia Medica, Chinese Academy of Medical Sciences, at a temperature of 20 to 25° C., a relative humidity of 40% to 70%, and a cycle of 12 hours of light and 12 hours of dark. The animals had free access to water and food. After 3 days of normal feeding, mice with good physical conditions after the veterinary examination were selected for this assay. Before grouping, a marker was used to mark on the base of the animals' tail. After grouping, each animal was marked with an ear cutout (7 mice in each group).
# Assay animals: 42 7-week-old male C57 mice were used for animal testing after an adaptive feeding.
# Group 1: blank control group;
# The preparation of the R01 formulation administration test solution was the same as that in Example 5: an appropriate amount of the R01 formulation was weighed according to the three dosages set in the assay, respectively, and an appropriate volume of 0.5% CMC-Na aqueous solution was added. The mixture was vortexed and sonicated until mixed evenly, to give the administration test solutions with concentrations of […], respectively, which were ready for use.
# Animal testing period: 7 days (excluding adaptive feeding), hereinafter referred to as: D1-D7.
# 1. The first group was a solvent control group: N=7, all mice were males (the same below); • a) 0.5% solution of sodium carboxymethyl cellulose was gavagely administered from D1 to D6 (twice a day for each animal, with an interval of 8 hours between the morning and the afternoon). • b) Physiological saline was intraperitoneally injected in one-time on D4. • c) On D7, blood was collected from the orbit for euthanasia (300 ul of serum was extracted), the left kidney was fixed in formaldehyde, and the right kidney was preserved in liquid nitrogen (WB study may be carried out).
# 1) The concentrations of urea nitrogen and creatinine in peripheral blood serum were tested.
# The body weight of the animals when being grouped for administration in each group was recorded. The body weight and the kidney weight at the end of the assay were also recorded, and the kidney coefficient was calculated. The creatinine and urea nitrogen values in the blood samples sent for testing were recorded. The kidneys were stained with HE and PAS, and the slides were scanned. A report was issued after the pathological analysis.
# The assay data were calculated and processed statistically using Microsoft Office Excel 2007 software. Unless otherwise specified, the data were expressed as mean±standard error (Mean±SE), and t-test was used for comparison between two groups.
structure (smiles),measurement,setting,value
"N.N.[Cl][Pt][Cl] [DDP, cisplatin]",Serum UREA Mean ± SE,[1],13.43 ± 1.04 mmol/L
same,Mean animal body weight ± SE,[2]; D 12 (grouping),17.6 ± 0.3 g
same,Mean animal body weight ± SE,[2]; D 15,17.2 ± 0.2 g
same,body weight loss rate,[2]; D 15,(2.6%)
same,Mean animal body weight ± SE,[2]; D 19,16.9 ± 0.3 g
same,body weight loss rate,[2]; D 19,(3.9%)
same,Mean animal body weight ± SE,[2]; D 22,16.3 ± 0.3 g
same,body weight loss rate,[2]; D 22,(7.4%)
same,Mean animal body weight ± SE,[2]; D 26,15.8 ± 0.4 g
same,body weight loss rate,[2]; D 26,(10%)
same,Mean animal body weight ± SE,[2]; D 29,15.3 ± 0.3 g
same,body weight loss rate,[2]; D 29,(13%)
same,Mean animal body weight ± SE,[2]; D 33,14.8 ± 0.4 g
same,body weight loss rate,[2]; D 33,(16%)
same,Mean animal body weight ± SE,[2]; D 36,14.8 ± 0.4 g
same,body weight loss rate,[2]; D 36,(16%)
same,Mean animal body weight ± SE,[2]; D 40,14.9 ± 0.4 g
same,body weight loss rate,[2]; D 40,(15%)
COC1=C(OC)C(=O)C(CCCCCCCCCCOC(=O)Cc2c(C)n(C(=O)c3ccc(Cl)cc3)c3ccc(OC)cc23)=C(C)C1=O [compound of formula (I)],colony-forming ability,[3],decreased significantly
same,colony-forming ability,[4],decreased significantly
same,serum creatinine value,"[5]; cisplatin 10 mg/kg alone (vs blank, P<0.01) or with amifostine 50 mg/kg i.p. / R01 6, 18, 36 mg/kg bid",equivalent to that of the blank control group
same,"Serum creatinine (Cre) level after the assay, x (mean)",[5]; R01 6 mg/kg,18.4 mg/dL
same,"Serum creatinine (Cre) level after the assay, x (mean)",[5]; R01 18 mg/kg,15.4 mg/dL
same,"Serum creatinine (Cre) level after the assay, x (mean)",[5]; R01 36 mg/kg,15.3 mg/dL
same,Serum creatinine (Cre) level after the assay,"[5]; R01 6 mg/kg, listed as R01, 6 mg/kg",20 mg/dl (2×) and 23 mg/dl and 26 mg/dl and 17 mg/dl and 18 mg/dl and 5 mg/dl
same,Serum creatinine (Cre) level after the assay,"[5]; R01 18 mg/kg, listed as R01, 18 mg/kg",15 mg/dl (2×) and 12 mg/dl (2×) and 17 mg/dl and 16 mg/dl and 21 mg/dl
same,Serum creatinine (Cre) level after the assay,"[5]; R01 36 mg/kg, listed as R01, 36 mg/kg",15 mg/dl (3×) and 13 mg/dl and 17 mg/dl and 16 mg/dl (2×)

# Reference: US20250270170A1, “2,3-DIMETHOXY-5-METHYL-1,4-BENZOQUINONE ALKYL ALCOHOL DERIVATIVE AND USE THEREOF” (BEIJING ANJIANXI BIO-MEDICAL TECHNOLOGY CO., LTD., priority 2021, published 2025)
